Test results published in patent publication US9005577B2, “Substrate based PET imaging agents” (Siemens Medical Solutions USA, Inc., priority 2008, dated 2015).
Square brackets hold non-standard residues; d marks the D form. Peptide text beside a SMILES is read from it. * marks the point of attachment. PEG4 = NCCOCCOCCOCCOCCC(=O)O; X1 = O=C(Cn1cc(CCCF)nn1)*

Legend:
Format in all cases: cell-based, human
U87 [1] = experiment: Cold [19F] standard compound uptake in cells treated with apoptotic inducer, LC/MS (U87); conditions: cold standard compound 10 μM, 2 h, 1 mM 5FU for 2 days, % uptake normalized per mg protein extract
Method: (§1) When cells grown in 6-well plates reached 80% confluence, the growth medium was replaced with 2 ml of fresh medium containing 1 mM of 5FU. After two days of apoptotic induction, the standard compound was added into the cultures (control and 5FU treated) at a final concentration of 10 μM. The cells were cultured in the incubator for 2 hours for compound uptake. Then, (in the case of experiments involving the use of caspase-3 inhibitors as blockers, the inhibitor was added to the cells 1 hour early before the addition of standard compound). 100 μl of cell culture medium for each sample was collected, and the cells were harvested by centrifugation. Cell pellets were washed twice with 1×PBS, and lysed in 100 μl of lysis buffer. Both cell lysate and medium were boiled for 5 minutes to denature proteins, cooled down on ice, then 100 μl of chloroform/methanol (50/50 ratio) were added. After vortexing and extraction, the samples were centrifuged in Eppendorf tubes in a micro centrifuge at 13000 rpm for 15 minutes at 4 C. 50 μl of the supernatant was transferred to an HPLC vial. The amounts of compound (or product of caspase-3 cleavage) inside the cells and in the medium were measured by LC/MS. The % uptake=total amount of cell uptake/total amount of compound X 100%. The % uptake was normalized by the amount of cellular protein extract (mg): % Uptake/mg protein extracts.

A498 [2] = experiment: Cold [19F] standard compound uptake in cells treated with apoptotic inducer, LC/MS (A498); conditions: cold standard compound 10 μM, 2 h, 1 mM 5FU for 2 days, % uptake normalized per mg protein extract
Method: as §1

HT29 [3] = experiment: Cold [19F] standard compound uptake in cells treated with apoptotic inducer, LC/MS (HT29); conditions: cold standard compound 10 μM, 2 h, 1 mM 5FU for 2 days, % uptake normalized per mg protein extract
Method: as §1

H2122 = experiment: Cold [19F] standard compound uptake in cells treated with apoptotic inducer, LC/MS (H2122); conditions: cold standard compound 10 μM, 2 h, 1 mM 5FU for 2 days, % uptake normalized per mg protein extract
Method: as §1

U87 [4] = experiment: [18F]-tracer compound uptake in cancer cell lines treated with apoptotic inducer 5FU (U87); conditions: [18F]-tracer 10 μCi/well, 2 h incubation, 1 mM 5FU for 2 days; % uptake normalized per mg protein extract
Method: (§2) Cells grown overnight and having reached about 80% confluence in 6-well plates were exposed to 1 mM of apoptotic inducer 5FU for 2 days in a cell culture incubator. The [18F]-labeled tracer was added into each well (triplicates for control and 5FU treated) at 10 μCi/well. (in case of experiments involving the use of caspase-3 inhibitors as blockers, the inhibitor was added to the cells 1 hour before the addition of the [18F]-tracer). The cells were then incubated for two hours. Cells were collected by scrape and centrifugation. Cell pellets were washed twice with 1λ PBS. The amount of tracer inside the cells and in the medium was measured by y-counter. The % Uptake=total CPM inside cells/total tracer CPM×100%. The % Uptake was normalized by the amount of cellular protein extract (mg): % uptake/mg protein extracts.

A498 [5] = experiment: [18F]-tracer compound uptake in cancer cell lines treated with apoptotic inducer 5FU (A498); conditions: [18F]-tracer 10 μCi/well, 2 h incubation, 1 mM 5FU for 2 days; % uptake normalized per mg protein extract
Method: as §2

HT29 [6] = experiment: [18F]-tracer compound uptake in cancer cell lines treated with apoptotic inducer 5FU (HT29); conditions: [18F]-tracer 10 μCi/well, 2 h incubation, 1 mM 5FU for 2 days; % uptake normalized per mg protein extract
Method: as §2

SMILES | percent uptake U87 (U87 [1]) [%] | percent uptake A498 (A498 [2]) [%] | percent uptake HT29 (HT29 [3]) [%] | percent uptake H2122 (H2122) [%] | percent uptake U87 (U87 [4]) [%] | percent uptake A498 (A498 [5]) [%] | percent uptake HT29 (HT29 [6]) [%]
CC(C)[C@H](NC(=O)[C@H](CCC(=O)O)NC(=O)[C@H](CC(=O)O)NC(=O)Cn1cc(CCCF)nn1)C(=O)N[C@@H](CC(=O)O)C(=O)NCC(=O)N[C@@H](CCCCN)C(=O)N[C@@H](CCCCN)C(=O)N[C@@H](CCCCN)C(=O)N[C@@H](CCCCN)C(N)=O [Compound 27] (X1-DEVDGKKKK-NH2) | 2.5 | 4.5 | 1.7 | 2.0 |  |  | 
CC(C)[C@H](NC(=O)[C@H](CCC(=O)O)NC(=O)[C@H](CC(=O)O)NC(=O)C1OC(CNC(=O)Cn2cc(CCC[18F])nn2)C(O)C(O)C1O)C(=O)N[C@@H](CC(=O)O)C(=O)N[C@@H](C)C(=O)NCCOCCOCCOCCOCCC(=O)O (stereo partly drawn) [^18F-56] |  |  |  |  | 2.1 | 2.1 | 1.9
CC(C)[C@H](NC(=O)[C@H](CCC(=O)O)NC(=O)[C@H](CC(=O)O)NC(=O)C1OC(CNC(=O)Cn2cc(CCC[18F])nn2)C(O)C(O)C1O)C(=O)N[C@@H](CC(=O)O)C(=O)NCC(N)=O (stereo partly drawn) [^18F-49] |  |  |  |  |  | 1.5 | 
CC(C)[C@H](NC(=O)[C@H](CCC(=O)O)NC(=O)[C@H](CC(=O)O)NC(=O)Cn1cc(CCCF)nn1)C(=O)N[C@@H](CC(=O)O)C(=O)N[C@@H](C)C(=O)NCCOCCOCCOCCOCCC(=O)O [Compound 21] (X1-DEVDA[PEG4]-OH) | 2.0 | 2.1 | 1.1 | 1.3 |  |  | 
CC(C)[C@H](NC(=O)[C@H](CCC(=O)O)NC(=O)[C@H](CC(=O)O)NC(=O)Cn1cc(CCC[18F])nn1)C(=O)N[C@@H](CC(=O)O)C(=O)N[C@@H](C)C(=O)NCCOCCOCCOCCOCCC(=O)O [^18F-21] |  |  |  |  | 2.1 | 1.8 | 2.1
